Data: article PMC6024778 (Viruses, 2018)

Test system: rMERS-CoV-S2
Format: cell-based, MERS-CoV

CN1CCN(CCOc2cc(OC3CCOCC3)c3c(Nc4c(Cl)ccc5c4OCO5)ncnc3c2)CC1 [Saracatinib]
EC50: 9 µM
